Test: Concentration of free isoliquiritigenin in saturated aqueous phase by HPLC
Format: physicochemical
Method: A total of 100 μL of ISL-LP solution was added to 900 μL of methanol and then subjected to vortex shaking for 10 min to disrupt the liposome structure. Following centrifugation at a speed of 13,000 rpm and a temperature of 4 °C for 10 min, 100 μL of the supernatant was diluted with methanol and then filtered through 0.22 μm membranes. Subsequently, 15 μL of the solution was injected into a high-performance liquid chromatography system (HPLC, Agilent 1100, Santa Clara, CA, USA) to detect the concentration of ISL according to the method previously reported. Before these steps, we quantified the concentration of free isoliquiritigenin in the saturated aqueous phase by HPLC. […] The drug loading (DL) and EE of ISL-LP were calculated according to Equations (1) and (2):EE (%) = (Wloaded/Wadded) × 100%(1) DL (%) = (Wloaded/Wtotal) × 100%(2) where Wloaded represents the amount of ISL loaded, Wadded denotes the weight of ISL added, and Wtotal signifies the weight of liposomes.

Compound: O=C(/C=C/c1ccc(O)cc1)c1ccc(O)cc1O [isoliquiritigenin, Isoliquiritigenin]
- concentration of free isoliquiritigenin in the saturated aqueous phase: below the detection limit
